# Measured values from article PMC8286840, “Identifying SARS-CoV-2 antiviral compounds by screening for small molecule inhibitors of Nsp3 papain-like protease” (Biochemical Journal, 2021).
# Counter-ions that a name gives are not always drawn. Like-named read-outs stand apart in the source and are kept apart here.
# Columns and labels:
# [1] = target: T1, SARS-CoV-2 PLpro (nsp3 1564–1878) (Severe acute respiratory syndrome coronavirus 2, UniProt P0DTD1); test: biochemical; set-up: FRET-quenched peptide (Pro3) cleavage by PLpro, 10 min pre-incubation, slope over 20 min, normalised to no-compound control; details: read-out: % of control remaining
# [2] = target: T1, SARS-CoV-2 PLpro (nsp3 1564–1878); test: biochemical; set-up: FRET-quenched peptide (Pro3) cleavage by PLpro, 10 min pre-incubation, slope over 20 min, normalised to no-compound control; details: read-out: % of control remaining; remark: listed apart in the source
smiles,measurement,setting,value
"CCCCCCN(CCCCCC)C(=O)Cc1c(-c2ccc(F)cc2)[nH]c2ccccc12 [N,N-Dihexyl-2-(4-fluorophenyl)indole-3-acetamide]",remaining activity at 1.25 µM,"[1]; Well no.=632, low concentration screen",99.3%
same,remaining activity at 3.75 µM,"[2]; Well no.=632, high concentration screen",96.6%
"CCCN(CCC)CCc1c[nH]c2ccc(C(N)=O)cc12 [N,N-Dipropyl-5-carboxamidotryptamine maleate]",remaining activity at 1.25 µM,"[1]; Well no.=402, low concentration screen",95.4%
same,remaining activity at 3.75 µM,"[2]; Well no.=402, high concentration screen",97.1%
"COc1cc2nccc(Oc3ccc(NC(=O)Nc4ccc(F)cc4F)c(F)c3)c2cc1OC [N-(2,4-Difluorophenyl)-N'-[4-[(6,7-dimethoxy-4-quinolinyl)oxy]-2-fluorophenyl]urea]",remaining activity at 1.25 µM,"[1]; Well no.=2572, low concentration screen",92%
same,remaining activity at 3.75 µM,"[2]; Well no.=2572, high concentration screen",98.1%
"Cc1nn(C)c2nc(NNC(=O)Nc3cc(Cl)nc(Cl)c3)cc(C(C)C)c12 [N-(2,6-dichloro-4-pyridinyl)-2-(4-isopropyl-1,3-dimethyl-1H-pyrazolo[3,4-b]pyridin-6-yl)hydrazinecarboxamide]",remaining activity at 1.25 µM,"[1]; Well no.=5923, low concentration screen",104%
same,remaining activity at 3.75 µM,"[2]; Well no.=5923, high concentration screen",100%
COc1cccc(C(=O)NCCN2CCN(c3ccc(Cl)cc3)CC2)c1 [N-(2-[4-(4-Chlorophenyl)piperazin-1-yl]ethyl)-3-methoxybenzamide],remaining activity at 1.25 µM,"[1]; Well no.=232, low concentration screen",99.5%
same,remaining activity at 3.75 µM,"[2]; Well no.=232, high concentration screen",99.4%
"CCCN(CCC)CC1CCCCN1CCNC(=O)N1c2ccccc2C(=O)Nc2cccnc21 (stereo not drawn) [N-(2-{2-[(dipropylamino)methyl]-1-piperidinyl}ethyl)-6-oxo-5,6-dihydro-11H-pyrido[2,3-b][1,4]benzodiazepine-11-carboxamide]",remaining activity at 1.25 µM,"[1]; Well no.=5609, low concentration screen",101%
same,remaining activity at 3.75 µM,"[2]; Well no.=5609, high concentration screen",101%
"COc1ccc(S(=O)(=O)Nc2cc(Cl)cc(Cl)c2OC)cc1N1CCNCC1 [N-(3,5-dichloro-2-methoxyphenyl)-4-methoxy-3-(piperazin-1-yl)benzenesulfonamide hydrochloride]",remaining activity at 1.25 µM,"[1]; Well no.=5561, low concentration screen",97.1%
same,remaining activity at 3.75 µM,"[2]; Well no.=5561, high concentration screen",103%
Nc1ccc(N2C(=O)c3ccccc3C2=O)c(Cl)c1 [N-(4-Amino-2-chlorophenyl)phthalimide],remaining activity at 1.25 µM,"[1]; Well no.=344, low concentration screen",95.3%
same,remaining activity at 3.75 µM,"[2]; Well no.=344, high concentration screen",96.5%
NCCCCNS(=O)(=O)c1ccc2c(Cl)cccc2c1 [N-(4-Aminobutyl)-5-chloro-2-naphthalenesulfonamide hydrochloride],remaining activity at 1.25 µM,"[1]; Well no.=55, low concentration screen",104%
same,remaining activity at 3.75 µM,"[2]; Well no.=55, high concentration screen",106%
COc1ccc2c(c1)c(CC(=O)Nc1ccc(NC(C)=O)cc1)c(C)n2C(=O)c1ccc(Cl)cc1 [N-(4-acetamidophenyl)indomethacinamide],remaining activity at 1.25 µM,"[1]; Well no.=343, low concentration screen",98.3%
same,remaining activity at 3.75 µM,"[2]; Well no.=343, high concentration screen",97.9%
CC(=O)NCCCCCN [N-(5-Aminopentyl)acetamide],remaining activity at 1.25 µM,"[1]; Well no.=6155, low concentration screen",98.4%
same,remaining activity at 3.75 µM,"[2]; Well no.=6155, high concentration screen",89.4%
COc1ccc(Cl)cc1NC(=O)Nc1cc(C)nc2ccccc12 [N-(5-Chloro-2-methoxyphenyl)-N'-(2-methyl-4-quinolinyl)urea],remaining activity at 1.25 µM,"[1]; Well no.=2626, low concentration screen",100%
same,remaining activity at 3.75 µM,"[2]; Well no.=2626, high concentration screen",101%
C#CCNCc1cc2cc(OCc3ccccc3)ccc2[nH]1 [N-((5-(benzyloxy)-1H-indol-2-yl)methyl)prop-2-yn-1-amine],remaining activity at 1.25 µM,"[1]; Well no.=5630, low concentration screen",95.4%
same,remaining activity at 3.75 µM,"[2]; Well no.=5630, high concentration screen",96.5%
CC(=O)NCCc1c[nH]c2ccc(O)cc12 [N-Acetyl-5-hydroxytryptamine],remaining activity at 1.25 µM,"[1]; Well no.=201, low concentration screen",102%
same,remaining activity at 3.75 µM,"[2]; Well no.=201, high concentration screen",103%
CC(=O)N[C@@H](CS)C(=O)O [N-Acetyl-Cysteine],remaining activity at 1.25 µM,"[1]; Well no.=4036, low concentration screen",97.8%
same,remaining activity at 3.75 µM,"[2]; Well no.=4036, high concentration screen",96.7%
CC(=O)N[C@@H]1[C@@H](O)[C@H](O)[C@@H](CO)O[C@@H]1O [N-Acetyl-D-glucosamine],remaining activity at 1.25 µM,"[1]; Well no.=6881, low concentration screen",100%
same,remaining activity at 3.75 µM,"[2]; Well no.=6881, high concentration screen",95%
CC(=O)N[C@@H](CS)C(=O)O [N-Acetyl-L-Cysteine],remaining activity at 1.25 µM,"[1]; Well no.=4, low concentration screen",98.3%
same,remaining activity at 3.75 µM,"[2]; Well no.=4, high concentration screen",97.6%
CC(=O)N[C@@H](CC(=O)O)C(=O)O [N-Acetyl-L-aspartic acid],remaining activity at 1.25 µM,"[1]; Well no.=6645, low concentration screen",98.3%
same,remaining activity at 1.25 µM,"[1]; Well no.=7690, low concentration screen",101%
same,remaining activity at 3.75 µM,"[2]; Well no.=6645, high concentration screen",98.5%
same,remaining activity at 3.75 µM,"[2]; Well no.=7690, high concentration screen",96.5%
CC(=O)N[C@@H](CC(C)C)C(=O)O [N-Acetyl-L-leucine],remaining activity at 1.25 µM,"[1]; Well no.=7596, low concentration screen",97%
same,remaining activity at 3.75 µM,"[2]; Well no.=7596, high concentration screen",98.8%
CC(=O)N[C@@H](Cc1ccc(O)cc1)C(=O)O [N-Acetyl-L-tyrosine],remaining activity at 1.25 µM,"[1]; Well no.=6677, low concentration screen",105%
same,remaining activity at 1.25 µM,"[1]; Well no.=8704, low concentration screen",101%
same,remaining activity at 3.75 µM,"[2]; Well no.=6677, high concentration screen",104%
same,remaining activity at 3.75 µM,"[2]; Well no.=8704, high concentration screen",99.9%
CCCCC/C=C\C\C=C/C=C/C=C/[C@@H](SCC(NC(C)=O)C(=O)O)[C@@H](O)CCCC(=O)O (stereo partly drawn) [N-Acetyl-leukotriene E4],remaining activity at 1.25 µM,"[1]; Well no.=4435, low concentration screen",101%
same,remaining activity at 3.75 µM,"[2]; Well no.=4435, high concentration screen",102%
CC(=O)NCCc1ccc(O)c(O)c1 [N-Acetyldopamine monohydrate],remaining activity at 1.25 µM,"[1]; Well no.=56, low concentration screen",98.3%
same,remaining activity at 3.75 µM,"[2]; Well no.=56, high concentration screen",101%
CC(=O)NCC(=O)O [N-Acetylglycine],remaining activity at 1.25 µM,"[1]; Well no.=6779, low concentration screen",96.3%
same,remaining activity at 3.75 µM,"[2]; Well no.=6779, high concentration screen",96%
CC(=O)N[C@H]1[C@H]([C@H](O)[C@H](O)CO)OC(O)(C(=O)O)C[C@@H]1O (stereo partly drawn) [N-Acetylneuraminic acid],remaining activity at 1.25 µM,"[1]; Well no.=6491, low concentration screen",92.4%
same,remaining activity at 3.75 µM,"[2]; Well no.=6491, high concentration screen",94.5%
CC(=O)N[C@@H](CCCN)C(=O)O [N-Acetylornithine],remaining activity at 1.25 µM,"[1]; Well no.=7731, low concentration screen",102%
same,remaining activity at 1.25 µM,"[1]; Well no.=8748, low concentration screen",99.4%
same,remaining activity at 3.75 µM,"[2]; Well no.=7731, high concentration screen",104%
same,remaining activity at 3.75 µM,"[2]; Well no.=8748, high concentration screen",98.7%
CCN(CC)CCNC(=O)c1ccc(NC(C)=O)cc1 [N-Acetylprocainamide hydrochloride],remaining activity at 1.25 µM,"[1]; Well no.=19, low concentration screen",104%
same,remaining activity at 3.75 µM,"[2]; Well no.=19, high concentration screen",103%
CC(=O)NCCc1c[nH]c2ccccc12 [N-Acetyltryptamine],remaining activity at 1.25 µM,"[1]; Well no.=100, low concentration screen",97.2%
same,remaining activity at 3.75 µM,"[2]; Well no.=100, high concentration screen",96.6%
"O=[N+]([O-])c1ccc(S(=O)(=O)NCc2ccccc2)c([N+](=O)[O-])c1 [N-Benzyl-2,4-dinitrobenzenesulfonamide]",remaining activity at 1.25 µM,"[1]; Well no.=6125, low concentration screen",98.4%
same,remaining activity at 3.75 µM,"[2]; Well no.=6125, high concentration screen",102%
CC(=O)NBr [N-Bromoacetamide],remaining activity at 1.25 µM,"[1]; Well no.=171, low concentration screen",101%
same,remaining activity at 3.75 µM,"[2]; Well no.=171, high concentration screen",98.1%
Clc1ccc2c(c1)N=C(N1CCNCC1)c1ccccc1N2 [N-Desmethylclozapine],remaining activity at 1.25 µM,"[1]; Well no.=7229, low concentration screen",100%
same,remaining activity at 3.75 µM,"[2]; Well no.=7229, high concentration screen",98.9%
CCN1C(=O)C=CC1=O [N-Ethylmaleimide],remaining activity at 1.25 µM,"[1]; Well no.=461, low concentration screen",102%
same,remaining activity at 1.25 µM,"[1]; Well no.=4101, low concentration screen",88.4%
same,remaining activity at 3.75 µM,"[2]; Well no.=461, high concentration screen",101%
same,remaining activity at 3.75 µM,"[2]; Well no.=4101, high concentration screen",95.8%
COc1cc2c(c(OC)c1OC)-c1ccc(OC)c(=O)cc1[C@@H](NC=O)CC2 [N-Formyl-Deacetylcolchicine],remaining activity at 1.25 µM,[1],102%
same,remaining activity at 3.75 µM,[2],103%
